Laboratory results reported in the CheMixHub ionic liquid set.
“And” between values parts separate entries of the source, which are not always exact repeats. Equal values may be shown once. ± gives the uncertainty stated by the source.

Assay: xn = mol fraction of the nth substance listed

CCOC(C)=O + CCO + CCCC[n+]1ccn(C)c1.O=S(=O)([N-]S(=O)(=O)C(F)(F)F)C(F)(F)F
298.15 K, 101 kPa
Conditions | viscosity [mPa·s]
x2 = 0.0086, x1 = 0.9023 | 0.967 ± 0.013
x2 = 0.0173, x1 = 0.804 | 1.818 ± 0.024
x2 = 0.0216, x1 = 0.8938 | 0.982 ± 0.013
x2 = 0.026, x1 = 0.7051 | 3.29 ± 0.046
x2 = 0.0299, x1 = 0.9014 | 0.806 ± 0.011
x2 = 0.035, x1 = 0.6029 | 5.36 ± 0.08
x2 = 0.0405, x1 = 0.8009 | 1.644 ± 0.021
x2 = 0.0422, x1 = 0.521 | 7.65 ± 0.12
x2 = 0.045, x1 = 0.8887 | 0.803 ± 0.011
x2 = 0.0534, x1 = 0.3936 | 12.87 ± 0.23
x2 = 0.0549, x1 = 0.8911 | 0.714 ± 0.009
x2 = 0.0571, x1 = 0.9051 | 0.658 ± 0.008
x2 = 0.0615, x1 = 0.7971 | 1.44 ± 0.019
x2 = 0.0622, x1 = 0.2942 | 17.63 ± 0.35
x2 = 0.0632, x1 = 0.6895 | 2.89 ± 0.039
x2 = 0.0688, x1 = 0.2189 | 22.5 ± 0.48
x2 = 0.0754, x1 = 0.1444 | 28.1 ± 0.63
x2 = 0.0777, x1 = 0.6181 | 4.09 ± 0.06
x2 = 0.0778, x1 = 0.1168 | 30.1 ± 0.69
x2 = 0.08, x1 = 0.8998 | 0.526 ± 0.007
x2 = 0.0815, x1 = 0.0753 | 34.1 ± 0.81
x2 = 0.0882, x1 = 0.7818 | 1.308 ± 0.017
x2 = 0.0925, x1 = 0.6947 | 2.35 ± 0.032
x2 = 0.0953, x1 = 0.8644 | 0.656 ± 0.009
x2 = 0.0984, x1 = 0.5164 | 6.16 ± 0.095
x2 = 0.0997, x1 = 0.8023 | 1.05 ± 0.014
x2 = 0.1177, x1 = 0.6116 | 3.32 ± 0.046
x2 = 0.1191, x1 = 0.802 | 0.89 ± 0.012
x2 = 0.1234, x1 = 0.3937 | 9.59 ± 0.16
x2 = 0.125, x1 = 0.6908 | 1.976 ± 0.026
x2 = 0.1404, x1 = 0.3101 | 13.03 ± 0.23
x2 = 0.1414, x1 = 0.7989 | 0.789 ± 0.01
x2 = 0.1455, x1 = 0.5201 | 4.81 ± 0.07
x2 = 0.1477, x1 = 0.707 | 1.521 ± 0.02
x2 = 0.1591, x1 = 0.8229 | 0.523 ± 0.007
x2 = 0.1604, x1 = 0.6032 | 2.8 ± 0.038
x2 = 0.1639, x1 = 0.1949 | 18.29 ± 0.36
x2 = 0.1658, x1 = 0.7923 | 0.681 ± 0.009
x2 = 0.1735, x1 = 0.1475 | 21.3 ± 0.43
x2 = 0.183, x1 = 0.6956 | 1.289 ± 0.017
x2 = 0.1841, x1 = 0.0957 | 24.4 ± 0.52
x2 = 0.1843, x1 = 0.392 | 7.6 ± 0.12
x2 = 0.1948, x1 = 0.043 | 28.1 ± 0.62
x2 = 0.1978, x1 = 0.5106 | 3.97 ± 0.056
x2 = 0.1995, x1 = 0.6042 | 2.19 ± 0.028
x2 = 0.2059, x1 = 0.7708 | 0.557 ± 0.008
x2 = 0.213, x1 = 0.2974 | 10.46 ± 0.18
x2 = 0.2132, x1 = 0.6967 | 1.026 ± 0.013
x2 = 0.2314, x1 = 0.6152 | 1.684 ± 0.021
x2 = 0.2434, x1 = 0.1969 | 14.03 ± 0.25
x2 = 0.2448, x1 = 0.6933 | 0.829 ± 0.011
x2 = 0.2449, x1 = 0.394 | 5.82 ± 0.087
x2 = 0.247, x1 = 0.51 | 3.05 ± 0.041
x2 = 0.2609, x1 = 0.1391 | 16.65 ± 0.31
x2 = 0.2729, x1 = 0.0996 | 18.5 ± 0.36
x2 = 0.2797, x1 = 0.6021 | 1.324 ± 0.017
x2 = 0.2857, x1 = 0.2933 | 8.02 ± 0.13
x2 = 0.2868, x1 = 0.0538 | 21 ± 0.42
x2 = 0.2924, x1 = 0.6745 | 0.658 ± 0.009
x2 = 0.2972, x1 = 0.5057 | 2.33 ± 0.03
x2 = 0.3062, x1 = 0.3928 | 4.4 ± 0.062
x2 = 0.3201, x1 = 0.5989 | 1.006 ± 0.013
x2 = 0.3236, x1 = 0.1993 | 10.53 ± 0.17
x2 = 0.3448, x1 = 0.147 | 12.41 ± 0.21
x2 = 0.3553, x1 = 0.4946 | 1.727 ± 0.022
x2 = 0.356, x1 = 0.294 | 5.97 ± 0.088
x2 = 0.3662, x1 = 0.094 | 14.33 ± 0.25
x2 = 0.3681, x1 = 0.3878 | 3.28 ± 0.044
x2 = 0.3736, x1 = 0.5842 | 0.736 ± 0.01
x2 = 0.3833, x1 = 0.0516 | 16.14 ± 0.29
x2 = 0.3974, x1 = 0.502 | 1.235 ± 0.016
x2 = 0.4042, x1 = 0.1983 | 7.96 ± 0.12
x2 = 0.4237, x1 = 0.3973 | 2.32 ± 0.03
x2 = 0.4281, x1 = 0.288 | 4.46 ± 0.062
x2 = 0.4291, x1 = 0.149 | 9.07 ± 0.14
x2 = 0.4547, x1 = 0.0982 | 10.36 ± 0.17
x2 = 0.4684, x1 = 0.4786 | 0.869 ± 0.011
x2 = 0.4784, x1 = 0.0511 | 11.87 ± 0.19
x2 = 0.4799, x1 = 0.3986 | 1.585 ± 0.021
x2 = 0.4832, x1 = 0.1963 | 5.71 ± 0.082
x2 = 0.508, x1 = 0.155 | 6.45 ± 0.093
x2 = 0.5162, x1 = 0.2658 | 3.24 ± 0.043
x2 = 0.5407, x1 = 0.1007 | 7.42 ± 0.11
x2 = 0.5473, x1 = 0.3908 | 1.023 ± 0.013
x2 = 0.5621, x1 = 0.2957 | 2.03 ± 0.026
x2 = 0.5657, x1 = 0.1954 | 3.92 ± 0.052
x2 = 0.574, x1 = 0.0452 | 8.7 ± 0.13
x2 = 0.598, x1 = 0.1495 | 4.39 ± 0.06
x2 = 0.6293, x1 = 0.2115 | 2.49 ± 0.032
x2 = 0.6333, x1 = 0.0992 | 5.1 ± 0.069
x2 = 0.6413, x1 = 0.2861 | 1.252 ± 0.016
x2 = 0.6634, x1 = 0.0564 | 5.74 ± 0.078
x2 = 0.6743, x1 = 0.1551 | 2.84 ± 0.037
x2 = 0.7038, x1 = 0.1181 | 3.11 ± 0.04
x2 = 0.7282, x1 = 0.1894 | 1.533 ± 0.02
x2 = 0.7476, x1 = 0.0632 | 3.67 ± 0.047
x2 = 0.7565, x1 = 0.1579 | 1.636 ± 0.021
x2 = 0.8052, x1 = 0.1037 | 1.848 ± 0.024
x2 = 0.8459, x1 = 0.0584 | 2.09 ± 0.027

CCCC[n+]1ccn(C)c1.O=S(=O)([N-]S(=O)(=O)C(F)(F)F)C(F)(F)F + c1ccsc1
Conditions | viscosity [mPa·s]
328.15 K, 100 kPa, x2 = 0 | 17.98 ± 0.96

CCCCCCO + CCCC[n+]1ccn(C)c1.O=[N+]([O-])[O-]
100 kPa, x2 = 0
Conditions | viscosity [mPa·s]
293.15 K | 5.37 ± 0.43
303.15 K | 3.94 ± 0.32
313.15 K | 2.95 ± 0.24
323.15 K | 2.26 ± 0.18

CCCCCCCC(=O)[O-].CCCCCC[NH+](CCCCCC)CCCCCC + O
298.15 K, 101 kPa
Conditions | viscosity
x1 = 0.3915 | 15.08 ± 0.61 mPa·s and 15.76 ± 0.63 mPa·s
x1 = 0.7748 | 20.5 ± 0.85 mPa·s and 21.52 ± 0.9 mPa·s

CCCC[n+]1ccn(C)c1.O=S(=O)([N-]S(=O)(=O)C(F)(F)F)C(F)(F)F + CO
296.35 K, 100 kPa, frequency 0.01 MHz
Conditions | electrical conductivity [S/m]
x1 = 0.008978 | 1.5 ± 0.06
x1 = 0.01434 | 2.51 ± 0.1
x1 = 0.02356 | 3.1 ± 0.12
x1 = 0.04259 | 4.63 ± 0.19
x1 = 0.08668 | 4.31 ± 0.17

Conditions | electrical conductivity [S/m] | viscosity [mPa·s]
298 K, 100 kPa, x1 = 0.05 | – | 1.017 ± 0.007
298 K, 100 kPa, x1 = 0.1927 | – | 3.181 ± 0.023
298 K, 100 kPa, x1 = 0.2796 | – | 5.166 ± 0.046
298 K, 100 kPa, x1 = 0.6962 | – | 23.01 ± 0.43
298 K, 100 kPa, x1 = 1 | – | 49.7 ± 1.3
298 K, 101 kPa, x2 = 0.3686 | 0.596 ± 0.095 | –
298 K, 101 kPa, x2 = 0.4819 | – | 13.83 ± 0.74
298 K, 101 kPa, x2 = 0.7921 | 2.43 ± 0.1 | –
298.15 K, 100 kPa, x2 = 0.0986 | – | 42.43 ± 0.52
298.15 K, 100 kPa, x2 = 0.7056 | – | 8.01 ± 0.21
303.15 K, 100 kPa, x2 = 0 | – | 40.54 ± 0.51
303.15 K, 100 kPa, x2 = 0.0986 | – | 34.9 ± 0.43
303.15 K, 100 kPa, x2 = 0.4004 | – | 18.48 ± 0.21
318.15 K, 100 kPa, x2 = 0.0986 | – | 20.96 ± 0.27
318.15 K, 100 kPa, x2 = 0.295 | – | 14.8 ± 0.19
318.15 K, 100 kPa, x2 = 0.4923 | – | 9.36 ± 0.22
318.15 K, 100 kPa, x2 = 0.7056 | – | 4.52 ± 0.2
323.15 K, 100 kPa, x2 = 0.7056 | – | 4.24 ± 0.2
323.15 K, 100 kPa, x2 = 0.8978 | – | 1.12 ± 0.2

CCCC[n+]1ccn(C)c1.F[P-](F)(F)(F)(F)F + CN(C)C=O
101 kPa
Conditions | viscosity [mPa·s]
293.15 K, x2 = 0.3999 | 39.7 ± 1.1
303.15 K, x2 = 0 | 187.6 ± 4.5
303.15 K, x2 = 0.7963 | 2.42 ± 0.03
303.15 K, x2 = 0.9399 | 1.21 ± 0.02
308.15 K, x2 = 0.3002 | 30.91 ± 0.86
308.15 K, x2 = 0.6 | 7.89 ± 0.22
308.15 K, x2 = 0.7 | 4.71 ± 0.13
313.15 K, x2 = 0.8543 | 1.7 ± 0.02
318.15 K, x2 = 0 | 95.8 ± 2.8
318.15 K, x2 = 0.2 | 31.22 ± 0.86
318.15 K, x2 = 0.6 | 6.16 ± 0.17
323.15 K, x2 = 0.4909 | 8.38 ± 0.19
323.15 K, x2 = 0.6262 | 4.46 ± 0.07

CCCCCCO + CCCCCCCC[n+]1ccc2ccccc2c1.O=S(=O)([N-]S(=O)(=O)C(F)(F)F)C(F)(F)F
Conditions | viscosity [mPa·s]
328.15 K, 101 kPa, x1 = 1 | 1.97 ± 0.02

CCCCCC[N+](CC)(CC)CC.O=S(=O)([N-]S(=O)(=O)C(F)(F)F)C(F)(F)F + O
101 kPa, x2 = 0.1627
Conditions | viscosity [mPa·s]
293.25 K | 79.3 ± 1.7
308.05 K | 44.04 ± 0.92

CCCC[n+]1ccn(C)c1.F[P-](F)(F)(F)(F)F + CC#N
298.15 K, 101 kPa
Conditions | electrical conductivity [S/m] | viscosity [mPa·s]
x2 = 0 | 0.157 ± 0.019 | 260
x2 = 0.099 | 0.245 ± 0.029 | 153 ± 70
x2 = 0.1938 | 0.374 ± 0.045 | 93 ± 24
x2 = 0.1945 | – | 86 ± 13
x2 = 0.2936 | 0.552 ± 0.066 | 53.6 ± 2.2
x2 = 0.3885 | 0.84 ± 0.1 | 31.3 ± 3.1
x2 = 0.4978 | 1.3 ± 0.16 | 16.2 ± 1.7
x2 = 0.5896 | 1.84 ± 0.22 | 8.8 ± 1
x2 = 0.6994 | 2.71 ± 0.33 | 4.18 ± 0.55
x2 = 0.7855 | 3.46 ± 0.42 | 2.27 ± 0.31
x2 = 0.846 | 3.93 ± 0.47 | 1.48 ± 0.21
x2 = 0.8918 | 4.18 ± 0.5 | 1.08 ± 0.16
